Source: patent USRE48711E1, “Apoptosis signal-regulating kinase inhibitors” (Gilead Sciences, Inc., priority 2009, dated 2021)

biological target: ASK1 (Apoptosis Signal-Regulating Kinase 1) (Homo sapiens (Human), UniProt Q99683); experiment: ASK1 (Apoptosis Signal-Regulating Kinase 1) TR-FRET Kinase Assay (Biochemical IC50); conditions: TR-FRET, biotin-MBP substrate, 20 min pre-incubation, ATP added as 300 μM solution
Sequence (Q99683 649-946): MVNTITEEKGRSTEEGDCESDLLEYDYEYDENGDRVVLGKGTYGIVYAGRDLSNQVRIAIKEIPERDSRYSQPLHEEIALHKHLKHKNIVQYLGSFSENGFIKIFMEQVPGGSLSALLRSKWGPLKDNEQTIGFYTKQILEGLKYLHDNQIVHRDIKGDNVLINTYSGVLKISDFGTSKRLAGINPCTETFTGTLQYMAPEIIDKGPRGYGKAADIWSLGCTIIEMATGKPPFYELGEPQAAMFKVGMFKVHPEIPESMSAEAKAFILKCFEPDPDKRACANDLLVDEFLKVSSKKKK

Structure (SMILES)	IC50 [nM]
CC(C)(O)c1ccc(-c2ccnc(C(=O)Nc3cccc(-c4nncn4C4CC4)n3)c2)cn1 [Example 166, N-(6-(4-cyclopropyl-4H-1,2,4-triazol-3-yl)pyridin-2-yl)-6-(2-hydroxypropan-2-yl)-3,4′-bipyridine-2′-carboxamide]	5
CC(C)c1cn(-c2ccnc(C(=O)Nc3cccc(-c4nncn4C4CC4)n3)c2)cn1 [Example 167, N-(6-(4-cyclopropyl-4H-1,2,4-triazol-3-yl)pyridin-2-yl)-4-(4-isopropyl-1H-imidazol-1-yl)picolinamide]	7
O=C(Nc1cc(F)cc(-c2nncn2C2CC2)c1)c1cc(-c2ccc(C3CC3)nc2)ccn1 [Example 168, 6-cyclopropyl-N-(3-(4-cyclopropyl-4H-1,2,4-triazol-3-yl)-5-fluorophenyl)-3,4′-bipyridine-2′-carboxamide]	143
O=C(Nc1cc(F)cc(-c2nncn2C2CC2)c1)c1cc(-c2cccnc2)ccn1 [Example 169, N-(3-(4-cyclopropyl-4H-1,2,4-triazol-3-yl)-5-fluorophenyl)-3,4′-bipyridine-2′-carboxamide]	157
O=C(Nc1cccc(-c2nncn2C2CC2)n1)c1cc(-n2cnc(C3CC3)c2)ccn1 [Example 170, 4-(4-cyclopropyl-1H-imidazol-1-yl)-N-(6-(4-cyclopropyl-4H-1,2,4-triazol-3-yl)pyridin-2-yl)picolinamide]	7
O=C(Nc1cccc(-c2nncn2C2CC2)c1)c1cc(-c2ccc(CC(F)(F)F)nc2)ccn1 [Example 171, N-(3-(4-cyclopropyl-4H-1,2,4-triazol-3-yl)phenyl)-6-(2,2,2-trifluoroethyl)-3,4′-bipyridine-2′-carboxamide]	7
CC(C)N1CCc2ncc(-c3ccnc(C(=O)Nc4cccc(-c5nncn5C5CC5)c4)c3)cc2C1 [Example 172, N-(3-(4-cyclopropyl-4H-1,2,4-triazol-3-yl)phenyl)-4-(6-isopropyl-5,6,7,8-tetrahydro-1,6-naphthyridin-3-yl)picolinamide]	17
CN1CCc2ncc(-c3ccnc(C(=O)Nc4cccc(-c5nncn5C5CC5)c4)c3)cc2C1 [Example 173, N-(3-(4-cyclopropyl-4H-1,2,4-triazol-3-yl)phenyl)-4-(6-methyl-5,6,7,8-tetrahydro-1,6-naphthyridin-3-yl)picolinamide]	21
O=C(Nc1cccc(-c2nncn2C2CC2)c1)c1cc(N2CCCC(O)C2)ccn1 (centres unmarked) [Example 174, N-(3-(4-cyclopropyl-4H-1,2,4-triazol-3-yl)phenyl)-4-(3-hydroxypiperidin-1-yl)picolinamide]	93
O=C(Nc1cccc(-c2nncn2C2CC2)n1)c1cc(N2CCCC(O)C2)ccn1 (centres unmarked) [Example 175, N-(6-(4-cyclopropyl-4H-1,2,4-triazol-3-yl)pyridin-2-yl)-4-(3-hydroxypiperidin-1-yl)picolinamide]	10
CC(C)n1cnnc1-c1cccc(NC(=O)c2cc(-c3ccc(C4CC4)nc3)ccn2)n1 [Example 176, 6-cyclopropyl-N-(6-(4-isopropyl-4H-1,2,4-triazol-3-yl)pyridin-2-yl)-3,4′-bipyridine-2′-carboxamide]	13
CCN1CCN(c2ccnc(C(=O)Nc3cccc(-c4nncn4C4CC4)c3)c2)CC1=O [Example 177, N-(3-(4-cyclopropyl-4H-1,2,4-triazol-3-yl)phenyl)-4-(4-ethyl-3-oxopiperazin-1-yl)picolinamide]	47
CCN1CCN(c2ccnc(C(=O)Nc3cccc(-c4nncn4C4CC4)n3)c2)CC1=O [Example 178, N-(6-(4-cyclopropyl-4H-1,2,4-triazol-3-yl)pyridin-2-yl)-4-(4-ethyl-3-oxopiperazin-1-yl)picolinamide]	7
C[C@H](n1cnnc1-c1cccc(NC(=O)c2cc(-c3ccc(C4CC4)nc3)ccn2)n1)C(F)(F)F [Example 179, (S)-6-cyclopropyl-N-(6-(4-(1,1,1-trifluoropropan-2-yl)-4H-1,2,4-triazol-3-yl)pyridin-2-yl)-3,4′-bipyridine-2′-carboxamide]	19
CC(C)n1cnnc1-c1cccc(NC(=O)c2cc(-c3cccnc3)ccn2)c1 [Example 180, N-(3-(4-isopropyl-4H-1,2,4-triazol-3-yl)phenyl)-3,4′-bipyridine-2′-carboxamide]	27
O=C(Nc1cccc(-c2nncn2CC2CC2)c1)c1cc(-c2cccnc2)ccn1 [Example 181, N-(3-(4-(cyclopropylmethyl)-4H-1,2,4-triazol-3-yl)phenyl)-3,4′-bipyridine-2′-carboxamide]	131
Cc1nc(C2CC2)cn1-c1ccnc(C(=O)Nc2cccc(-c3nncn3C3CC3)c2)c1 [Example 182, 4-(4-cyclopropyl-2-methyl-1H-imidazol-1-yl)-N-(3-(4-cyclopropyl-4H-1,2,4-triazol-3-yl)phenyl)picolinamide]	15

The next lines start with the values.

IC50 [nM]	Structure (SMILES)
8	Cc1nc(C2CC2)cn1-c1ccnc(C(=O)Nc2cccc(-c3nncn3C3CC3)n2)c1 [Example 183, 4-(4-cyclopropyl-2-methyl-1H-imidazol-1-yl)-N-(6-(4-cyclopropyl-4H-1,2,4-triazol-3-yl)pyridin-2-yl)picolinamide]
20	CC(C)n1cnnc1-c1cccc(NC(=O)c2cc(-n3cnc(C4CC4)c3)ccn2)c1 [Example 184, 4-(4-cyclopropyl-1H-imidazol-1-yl)-N-(3-(4-isopropyl-4H-1,2,4-triazol-3-yl)phenyl)picolinamide]
34	O=C(Nc1cccc(-c2nncn2CC2CC2)c1)c1cc(-n2cnc(C3CC3)c2)ccn1 [Example 185, 4-(4-cyclopropyl-1H-imidazol-1-yl)-N-(3-(4-(cyclopropylmethyl)-4H-1,2,4-triazol-3-yl)phenyl)picolinamde]
30	CC(c1ccccc1)n1cnnc1-c1cccc(NC(=O)c2cc(-n3cnc(C4CC4)c3)ccn2)c1 (centres unmarked) [Example 186, 4-(4-cyclopropyl-1H-imidazol-1-yl)-N-(3-(4-(1-phenylethyl)-4H-1,2,4-triazol-3-yl)phenyl)picolinamide]
4	O=C(Nc1cccc(-c2nncn2C2CC2)n1)c1cc(-n2cnc3c2CCCC3)ccn1 [Example 187, N-(6-(4-cyclopropyl-4H-1,2,4-triazol-3-yl)pyridin-2-yl)-4-(4,5,6,7-tetrahydro-1H-benzo[d]imidazol-1-yl)picolinamide]
6	O=C(Nc1cccc(-c2nncn2C2CC2)n1)c1cc(-n2cnc(C(F)(F)F)c2)ccn1 [Example 188, N-(6-(4-cyclopropyl-4H-1,2,4-triazol-3-yl)pyridin-2-yl)-4-(4-(trifluoromethyl)-1H-imidazol-1-yl)picolinamide]
9	C[C@H](n1cnnc1-c1cccc(NC(=O)c2cc(-n3cnc(C4CC4)c3)ccn2)c1)C(F)(F)F [Example 189, (S)-4-(4-cyclopropyl-1H-imidazol-1-yl)-N-(3-(4-(1,1,1-trifluoropropan-2-yl)-4H-1,2,4-triazol-3-yl)phenyl)picolinamide]
13	O=C(Nc1cccc(-c2nncn2C2CC2)c1)c1cc(-c2cnc3cccnc3c2)ccn1 [Example 190, N-(3-(4-cyclopropyl-4H-1,2,4-triazol-3-yl)phenyl)-4-(1,5-naphthyridin-3-yl)picolinamide]
18	O=C(Nc1cccc(-c2nncn2C2CC2)n1)c1cccc(-c2cnc3cccnc3c2)c1 [Example 191, N-(6-(4-cyclopropyl-4H-1,2,4-triazol-3-yl)pyridin-2-yl)-3-(1,5-naphthyridin-3-yl)benzamide]
